# Values quoted from earlier work as cited in patent US20230051463A1, “Methotrexate Dosage Form” (ROS Therapeutics ApS, priority 2020, published 2023).
# Read-outs that look alike come from different tables or passages of the source.
# Columns and labels:
# [1] = oral
SMILES,solubility in water,AUC(0-24) Geometric LS Mean ([1]; Methotrexate 10 mg) [ng·h/mL],Cmax Geometric LS Mean ([1]; Methotrexate 10 mg) [ng/mL],AUC(0-24) Geometric LS Mean ([1]; Methotrexate 15 mg) [ng·h/mL],Cmax Geometric LS Mean ([1]; Methotrexate 15 mg) [ng/mL],AUC(0-24) Geometric LS Mean ([1]; Methotrexate 20 mg) [ng·h/mL],Cmax Geometric LS Mean ([1]; Methotrexate 20 mg) [ng/mL],AUC(0-24) Geometric LS Mean ([1]; Methotrexate 25 mg) [ng·h/mL],Cmax Geometric LS Mean ([1]; Methotrexate 25 mg) [ng/mL]
CN(Cc1cnc2nc(N)nc(N)c2n1)c1ccc(C(=O)N[C@@H](CCC(=O)[O-])C(=O)[O-])cc1.[Na+].[Na+] [Methotrexate disodium],freely soluble,,,,,,,,
CN(Cc1cnc2nc(N)nc(N)c2n1)c1ccc(C(=O)N[C@@H](CCC(=O)O)C(=O)O)cc1 [Methotrexate],practically insoluble,,,,,,,,
CN(Cc1cnc2nc(N)nc(N)c2n1)c1ccc(C(=O)N[C@@H](CCC(=O)O)C(=O)O)cc1 [Oral MTX],,1223.7,247.2,1752.0,349.4,1927.2,440.4,1987.8,423.5
